Patent US11866720B2, “Transgenic or non-transgenic plants with mutated protoporphyrinogen oxidase having increased tolerance to herbicides” (priority 2013, dated 2024)
Values joined by “and” are separate entries in the source; they are usually repeats but may differ in a detail not shown here. Identical values can stand only once. Like-named read-outs stand apart in the source and are kept apart here.

How the values were obtained:
Assay type in all cases: in vivo, Glycine max
[1] = tested on: transgenic soybean expressing mutated PPO; test: Soybean segregating T1 individuals, greenhouse spray test (injury 0-9); details: benzoxazin 100 g ai/ha, 1 week after treatment
[2] = tested on: transgenic soybean expressing mutated PPO; details: T1 soybean, field; for injury (1-5 point scale): benzoxazin (BAS 850H) 100 g ai/ha, 3 days after treatment; on injury (1-5 point scale): key: 1: no obvious damage (no phytotoxicity); 2: minor amount of leaf damage, plant will survive; 3: moderate amount of leaf damage, plant will survive; 4: severe amount of leaf damage, plant will survive; 5: no surviving plants - all plants dead/dying
[3] = tested on: transgenic soybean expressing mutated PPO; test: Soybean T0 cuttings, greenhouse spray test (injury score 0-9, 1 week after treatment); details: for Injury score from 0-9: soybean T0 cuttings, 1 week after treatment
Source text: For testing of T0 plants, cuttings can be used. In the case of soybean plants, an optimal shoot for cutting is about 7.5 to 10 cm tall, with at least two nodes present. Each cutting is taken from the original transformant (mother plant) and dipped into rooting hormone powder (indole-3-butyric acid, IBA). The cutting is then placed in oasis wedges inside a bio-dome. Wild type cuttings are also taken simultaneously to serve as controls. The cuttings are kept in the bio-dome for 5-7 days and then transplanted to pots and then acclimated in the growth chamber for two more days. Subsequently, the cuttings are transferred to the greenhouse, acclimated for approximately 4 days, and then subjected to spray tests as indicated. Depending on the species, the plants are kept at 10-25° C. or 20-35° C. The test period extends over 3 weeks. During this time, the plants are tended and their response to the individual treatments is evaluated. Herbicide injury evaluations are taken at 2 and 3 weeks after treatment. Plant injury is rated on a scale of 0% to 100%, 0% being no injury and 100% being complete death.
Soybean cv Jake was transformed as previously described by Siminszky et al., Phytochem Rev. 5:445-458 (2006). After regeneration, transformants were transplanted to soil in small pots, placed in growth chambers (16 hr day/8 hr night; 25° C. day/23° C. night; 65% relative humidity; 130-150 microE m-2 s-1) and subsequently tested for the presence of the T-DNA via Taqman analysis. After a few weeks, healthy, transgenic positive, single copy events were transplanted to larger pots and allowed to grow in the growth chamber. An optimal shoot for cutting was about 3-4 inches tall, with at least two nodes present. Each cutting was taken from the original transformant (mother plant) and dipped into rooting hormone powder (indole-3-butyric acid, IBA). The cutting was then placed in oasis wedges inside a bio-dome. The mother plant was taken to maturity in the greenhouse and harvested for seed. Wild type cuttings were also taken simultaneously to serve as negative controls. The cuttings were kept in the bio-dome for 5-7 days and then transplanted to 3 inch pots and then acclimated in the growth chamber for two more days. […] Herbicide injury evaluations were taken at 2, 7, 14 and 21 days after treatment. Results are shown in Tables 11a-11i, and FIGS. 5, 6, and 7.
The following gives a definition of the injury scores measured above: […]

[4] = SDS-10648 AmtuPPX2L R128A_F420I

With `C#CCN1C(=O)C(F)(F)Oc2cc(F)c(-n3c(=O)n(C)c(=S)n(C)c3=O)cc21` the “injury (0-9 point scale)” value ([1]; SDS10791 AmtuPPX2L R128A_F420I) was 3 (2×) and 2 and 4 (3×) and 9 and 5, the “injury (0-9 point scale)” value ([1]; SDS-10642 AmtuPPX2L R128A_F420L) was 6 and 5 (5×) and 9 and 4 and the “injury (0-9 point scale)” value [1, 4] was 4 (3×) and 9 and 5 (4×). For the same compound, the “injury (0-9 point scale)” value ([1]; SDS-10652 AmtuPPX2L L397D_F420V) was 9 (2×) and 4 (6×), the “injury (0-9 point scale)” value ([1]; SDS-10787 AmtuPPX2L R128A_F420L) was 4 and 5 (3×) and 9 (2×) and 6 (2×) and the “injury (0-9 point scale)” value ([1]; SDS-10985 AmtuPPX2L R128A_F420M) was 9 (5×) and 6 (3×). The “injury (0-9 point scale)” value ([1]; SDS-10990 AmtuPPX2L R128A_F420M) was 9 (3×) and 7 (2×) and 6 (3×), the “injury (0-9 point scale)” value ([1]; SDS-11034 AmtuPPX2L R128A_F420V) was 4 (3×) and 3 (3×) and 2 (2×) and the “injury (0-9 point scale)” value ([1]; wild type) was 9 (7×) and 8. For the same compound, the “Injury rating (1-5 point scale)” value ([2]; AmtuPPX2L_R128A_F420V (event 10), BAS 850H: treatment 1 100 g ai/ha, treatment 2 0, 7DAT) was 3.5, the “Injury rating (1-5 point scale)” value ([2]; AmtuPPX2L_R128A_F420V (event 10), BAS 850H: treatment 1 300 g ai/ha, treatment 2 300 g ai/ha, 14 DAT) was 3 and the “injury (1-5 point scale)” value [2, 4] was 3. For the same compound, the “injury (1-5 point scale)” value ([2]; SDS-10791 AmtuPPX2L R128A_F420I) was 2, the “injury (1-5 point scale)” value ([2]; SDS-11014 AmtuPPX2L R128A_F420I) was 2 and the “injury (1-5 point scale)” value ([2]; SDS-11034 AmtuPPX2L L397D_F420V) was 3. For the same compound, the “injury (1-5 point scale)” value ([2]; SDS-11035 AmtuPPX2L R128A_F420V) was 2, the “injury (1-5 point scale)” value ([2]; SDS-11052 AmtuPPX2L R128A_F420M) was 3 and the “Injury rating (1-5 point scale)” value ([2]; wild type, BAS 850H: treatment 1 100 g ai/ha, treatment 2 0, 7DAT) was 5. For the same compound, the “Injury rating (1-5 point scale)” value ([2]; wild type, BAS 850H: treatment 1 300 g ai/ha, treatment 2 300 g ai/ha, 14 DAT) was 5, the “injury (1-5 point scale)” value ([2]; wild type) was 5 and the “injury score 1 WAT” value ([3]; Soy T0 AmtuPPX2L_R128L_F420V event 1, greenhouse, 25 g ai/ha) was 3. The “injury score 1 WAT” value ([3]; Soy T0 AmtuPPX2L_R128L_F420V event 1, greenhouse, 50 g ai/ha) was 4, the “injury score 1 WAT” value ([3]; Soy T0 AmtuPPX2L_R128L_F420V event 1, greenhouse, 75 g ai/ha) was 5 and the “injury score 1 WAT” value ([3]; Soy T0 AmtuPPX2L_R128L_F420V event 2, greenhouse, 25 g ai/ha) was 0. For the same compound, the “injury score 1 WAT” value ([3]; Soy T0 AmtuPPX2L_R128L_F420V event 2, greenhouse, 50 g ai/ha) was 1, the “injury score 1 WAT” value ([3]; Soy T0 AmtuPPX2L_R128L_F420V event 2, greenhouse, 75 g ai/ha) was 3 and the “Injury score from 0-9” value ([3]; AmtuPPX2L (10 events), benzoxazin 12.5 + 1% MSO) was 3. For the same compound, the “Injury score from 0-9” value ([3]; AmtuPPX2L (10 events), benzoxazin 25 + 1% MSO) was 5, the “Injury score from 0-9” value ([3]; AmtuPPX2L_F420L (7 events), benzoxazin 12.5 + 1% MSO) was 2 and the “Injury score from 0-9” value ([3]; AmtuPPX2L_F420L (7 events), benzoxazin 25 + 1% MSO) was 1. The “Injury score from 0-9” value ([3]; AmtuPPX2L_F420M (8 events), benzoxazin 25 + 1% MSO) was 1, the “Injury score from 0-9” value ([3]; AmtuPPX2L_F420M (8 events), benzoxazin 50 + 1% MSO) was 2 and the “Injury score from 0-9” value ([3]; AmtuPPX2L_R128A_F420I (9 events), benzoxazin 25 + 1% MSO) was 2. The “Injury score from 0-9” value ([3]; AmtuPPX2L_R128A_F420I (9 events), benzoxazin 50 + 1% MSO) was 2, the “Injury score from 0-9” value ([3]; AmtuPPX2L_R128A_F420I (9 events), benzoxazin 75 + 1% MSO) was 3 and the “Injury score from 0-9” value ([3]; AmtuPPX2L_R128A_F420L (6 events), benzoxazin 25 + 1% MSO) was 0. The “Injury score from 0-9” value ([3]; AmtuPPX2L_R128A_F420M (7 events), benzoxazin 25 + 1% MSO) was 3, the “Injury score from 0-9” value ([3]; AmtuPPX2L_R128A_F420M (7 events), benzoxazin 50 + 1% MSO) was 3 and the “Injury score from 0-9” value ([3]; AmtuPPX2L_R128A_F420M (7 events), benzoxazin 75 + 1% MSO) was 4. For the same compound, the “Injury score from 0-9” value ([3]; AmtuPPX2L_R128A_F420V (14 events), benzoxazin 25 + 1% MSO) was 2, the “Injury score from 0-9” value ([3]; AmtuPPX2L_R128A_F420V (14 events), benzoxazin 50 + 1% MSO) was 2 and the “Injury score from 0-9” value ([3]; AmtuPPX2L_R128A_F420V (14 events), benzoxazin 75 + 1% MSO) was 3. For the same compound, the “Injury score from 0-9” value ([3]; AmtuPPX2L_dG210 (13 events), benzoxazin 25 + 1% MSO) was 1, the “Injury score from 0-9” value ([3]; AmtuPPX2L_dG210 (13 events), benzoxazin 50 + 1% MSO) was 3 and the “Injury score from 0-9” value ([3]; AmtuPPX2L_dG210_R128L (12 events), benzoxazin 25 + 1% MSO) was 2. The “Injury score from 0-9” value ([3]; AmtuPPX2L_dG210_R128L (12 events), benzoxazin 50 + 1% MSO) was 3, the “Injury score from 0-9” value ([3]; NitabPPX2 (13 events), benzoxazin 12.5 + 1% MSO) was 6 and the “Injury score from 0-9” value ([3]; NitabPPX2 (13 events), benzoxazin 25 + 1% MSO) was 6. The “Injury score from 0-9” value ([3]; NitabPPX2_R98A_F392V (9 events), benzoxazin 25 + 1% MSO) was 0, the “Injury score from 0-9” value ([3]; NitabPPX2_R98A_F392V (9 events), benzoxazin 50 + 1% MSO) was 0 and the “Injury score from 0-9” value ([3]; wild type Jake variety, benzoxazin 12.5 + 1% MSO) was 7. For the same compound, the “Injury score from 0-9” value ([3]; wild type Jake variety, benzoxazin 25 + 1% MSO) was 8, the “Injury score from 0-9” value ([3]; wild type Jake variety, benzoxazin 50 + 1% MSO) was 9 and the “Injury score from 0-9” value ([3]; wild type Jake variety, benzoxazin 75 + 1% MSO) was 9.
